Results published in patent US8076358B2, “6-substituted-thio-2-amino-quinoline derivatives useful as inhibitors of β-secretase (BACE)” (Janssen Pharmaceutica NV, priority 2008, dated 2011).

Biological target: human BACE-1 (Homo sapiens, UniProt P56817)
Experiment: In Vitro BACE Assay (CEREP, fluorogenic substrate)
Type: biochemical
Details: recombinant enzyme; for inhibition at 10 µM: 10 μM test compound, pH 4.5; for IC50: pH 4.5, 60 min at 37° C.
Method: This assay was run by CEREP (Catalog Ref. 761-B, Referred to SOP No. 1C131; ERMOLIEFF, J., LOY, J. A., KOELSCH, G. and TANG, J., Proteolytic activation of recombinant pro-memapsin 2 (pro-BACE) studied with new fluorogenic substrates, Biochemistry, (2000) Vol. 39, p. 12450).
More specifically the assay, run at 50 μL in a 96 well plate, evaluated the effect of test compound on the activity of the human BACE-1 quantified by measuring the formation of Mca-S-E-V-N-L-NH2 from Mca-S-E-V-N-L-D-A-E-F-R-K(Dnp)-R-R—NH2, using a recombinant enzyme.
The test compound, reference compound or water (control) was added to a buffer containing 0.09 M sodium acetate (pH 4.5) and 0.25 μg BACE-1. Compound interference with the fluorimetric detection method due to autofluorescence was then checked by measurements at the wavelengths defined to evaluate the enzyme activity. Thereafter, the reaction was initiated by adding 7.5 μM of the substrate Mca-S-E-V-N-L-D-A-E-F-R-K(Dnp)-R—R—NH2 and the mixture was incubated for 60 min at 37° C. For control basal measurement, the substrate was omitted from the reaction mixture. Immediately after the incubation, the fluorescence intensity emitted by the reaction product Mca-S-E-V-N-L-NH2 was measured at λex=320 nm and λem=405 nm using a microplate reader (Ultra, Tecan). The standard inhibitory reference compound was OM99-2, which was tested in each experiment at several concentrations to obtain an inhibition curve from which its IC50 value was calculated.

human BACE-1, sequence (P56817 46-501): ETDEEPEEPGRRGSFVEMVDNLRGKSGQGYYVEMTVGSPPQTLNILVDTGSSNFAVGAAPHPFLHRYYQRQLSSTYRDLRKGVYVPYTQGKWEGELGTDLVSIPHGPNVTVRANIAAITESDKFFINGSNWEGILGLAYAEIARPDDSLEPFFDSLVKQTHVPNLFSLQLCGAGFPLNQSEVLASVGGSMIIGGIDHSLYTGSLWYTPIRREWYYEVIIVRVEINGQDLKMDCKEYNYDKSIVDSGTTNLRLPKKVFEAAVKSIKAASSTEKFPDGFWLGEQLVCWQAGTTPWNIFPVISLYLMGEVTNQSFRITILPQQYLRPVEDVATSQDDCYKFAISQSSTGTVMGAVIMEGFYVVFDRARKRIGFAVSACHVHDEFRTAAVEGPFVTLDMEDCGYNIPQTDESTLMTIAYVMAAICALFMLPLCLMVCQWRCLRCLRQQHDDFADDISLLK

Row | inhibition at 10 µM [%] | IC50 [µM] | SMILES
1 | 96 | 0.26 | Cc1cc(C)c(CNCc2cccc(Sc3ccc4nc(N)c(CC5CCOCC5)cc4c3)c2)c(C)c1 [Compound 1, 3-(Tetrahydro-pyran-4-ylmethyl)-6-{3-[(2,4,6-trimethyl-benzylamino)-methyl]-phenylsulfanyl}-quinolin-2-ylamine]
2 | 94 | 0.92 | Cc1cc(C)c(NCc2cccc(Sc3ccc4nc(N)c(CC5CCOCC5)cc4c3)c2)c(C)c1 [Compound 2]
3 | 97 | 0.4 | Nc1nc2ccc(Sc3cccc(CNCc4c(F)cccc4F)c3)cc2cc1CC1CCOCC1 [Compound 4]
4 | 93 | 0.8 | Nc1nc2ccc(Sc3cccc(CNCc4ccccn4)c3)cc2cc1CC1CCOCC1 [Compound 5]
5 | 98 | 0.45 | Cc1ccc(CNCc2cccc(Sc3ccc4nc(N)c(CC5CCOCC5)cc4c3)c2)c(C)c1 [Compound 6]
6 | 90 | 0.38 | COc1ccc(CNCc2cccc(Sc3ccc4nc(N)c(CC5CCOCC5)cc4c3)c2)c(OC)c1 [Compound 7]
7 | 95 | 0.21 | Nc1nc2ccc(Sc3cccc(CNCc4cc(F)ccc4F)c3)cc2cc1CC1CCOCC1 [Compound 8]
8 | 98 | 0.24 | Nc1nc2ccc(Sc3cccc(CNCc4ccc(Cl)cc4Cl)c3)cc2cc1CC1CCOCC1 [Compound 9]
9 | 95 | 0.3 | CCOc1ccccc1CNCc1cccc(Sc2ccc3nc(N)c(CC4CCOCC4)cc3c2)c1 [Compound 10]
10 | 90 | 0.46 | Nc1nc2ccc(Sc3cccc(CNCc4ccc(C(F)(F)F)cc4)c3)cc2cc1CC1CCOCC1 [Compound 12]
11 | 63 | 2.8 | CCCC(NCc1cccc(Sc2ccc3nc(N)c(CC4CCOCC4)cc3c2)c1)C(=O)O (stereo not drawn) [Compound 13]
12 | 93 | 1.2 | Cc1ccc(C)c(COCc2cccc(Sc3ccc4nc(N)c(CC5CCOCC5)cc4c3)c2)c1 [Compound 16]
13 | 94 | 0.33 | Nc1nc2ccc(Sc3cccc(CSc4cccc(CC(=O)O)c4)c3)cc2cc1CC1CCOCC1 [Compound 17]
14 | 95 | 0.26 | CCOc1ccccc1CNCc1cccc(Sc2cc3cc(CC4CCOCC4)c(N)nc3cc2F)c1 [Compound 18, 6-{3-[(2-Ethoxy-benzylamino)-methyl]-phenylsulfanyl}-7-fluoro-3-(tetrahydro-pyran-4-ylmethyl)-quinolin-2-ylamine]
15 | 98 | 0.14 | CCOc1ccccc1CNCCc1cccc(Sc2ccc3nc(N)c(CC4CCOCC4)cc3c2)c1 [Compound 20]
16 | 91 | 0.63 | Nc1nc2ccc(Sc3cccc(CCNCc4ccccn4)c3)cc2cc1CC1CCOCC1 [Compound 21]
17 | 98 | 1.2 | Cc1cc(C)c(CNCc2cccc(Oc3ccc4nc(N)c(CC5CCOCC5)cc4c3)c2)c(C)c1 [Compound (II-a), 3-(Tetrahydro-pyran-4-ylmethyl)-6-{3-[(2,4,6-trimethylbenzylamino)-methyl]-phenoxy}-quinolin-2-ylamine]
18 | 74 | > 10 | Cc1cc(C)c(CNCc2cccc(Oc3ccc4nc(N)c(CCC5CCOCC5)cc4c3)c2)c(C)c1 [Compound (II-b), 3-[2-(Tetrahydro-pyran-4-yl)-ethyl]-6-{3-[(2,4,6-trimethylbenzylamino)-methyl]-phenoxy}-quinolin-2-ylamine]
